Test results as given in US8486969B2, “Therapeutic compounds” (Allergan, Inc., priority 2007, dated 2013).

Legend:
Format in all cases: cell-based
alpha2B receptor = target: T1, alpha2B receptor (Homo sapiens, UniProt P18089); test: RSAT assay (Receptor Selection and Amplification Technology), alpha2B; conditions: for EC50: RSAT, NIH-3T3 cells cotransfected with receptor and Gq/i5, ND = not determinable at concentrations less than 10 micromolar, read-out: Alpha 2B EC50; for Emax: maximal effect relative to standard full agonist brimonidine (UK14304), read-out: Alpha 2B intrinsic activity (IA), in parentheses
T1 construct: expressed in transfected cells; host or cells: NIH-3T3 cells
T1 sequence (P18089 1-450): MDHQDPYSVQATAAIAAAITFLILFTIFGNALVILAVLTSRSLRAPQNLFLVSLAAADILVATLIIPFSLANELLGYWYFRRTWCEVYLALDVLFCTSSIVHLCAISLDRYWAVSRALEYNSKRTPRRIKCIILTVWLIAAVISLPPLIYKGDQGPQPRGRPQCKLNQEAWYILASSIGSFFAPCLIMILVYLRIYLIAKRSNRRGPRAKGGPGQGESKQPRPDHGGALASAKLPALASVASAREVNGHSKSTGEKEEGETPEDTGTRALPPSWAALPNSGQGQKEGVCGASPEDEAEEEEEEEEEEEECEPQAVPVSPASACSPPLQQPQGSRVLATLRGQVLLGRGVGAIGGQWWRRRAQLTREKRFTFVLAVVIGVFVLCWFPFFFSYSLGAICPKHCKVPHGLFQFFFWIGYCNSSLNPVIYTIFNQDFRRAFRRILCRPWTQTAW
Description: (§1) Receptor Selection and Amplification Technology (RSAT) Assay
(§2) The RSAT assay measures a receptor-mediated loss of contact inhibition that results in selective proliferation of receptor-containing cells in a mixed population of confluent cells. The increase in cell number is assessed with an appropriate transfected marker gene such as β-galactosidase, the activity of which can be easily measured in a 96-well format. Receptors that activate the G protein, Gq, elicit this response. Alpha2 receptors, which normally couple to Gi, activate the RSAT response when coexpressed with a hybrid Gq protein that has a Gi receptor recognition domain, called Gq/i5.
NIH-3T3 cells are plated at a density of 2×10^6 cells in 15 cm dishes and maintained in Dulbecco's modified Eagle's medium supplemented with 10% calf serum. One day later, cells are cotransfected by calcium phosphate precipitation with mammalian expression plasmids encoding p-SV-β-galactosidase (5-10 μg), receptor (1-2 μg) and G protein (1-2 μg). 40 μg salmon sperm DNA may also be included in the transfection mixture. Fresh media is added on the following day and 1-2 days later, cells are harvested and frozen in 50 assay aliquots. Cells are thawed and 100 μl added to 100 μl aliquots of various concentrations of drugs in triplicate in 96-well dishes. Incubations continue 72-96 hr at 37° C. After washing with phosphate-buffered saline, β-galactosidase enzyme activity is determined by adding 200 μl of the chromogenic substrate (consisting of 3.5 mM o-nitrophenyl-β-D-galactopyranoside and 0.5% nonidet P-40 in phosphate buffered saline), incubating overnight at 30° C. and measuring optical density at 420 nm. The absorbance is a measure of enzyme activity, which depends on cell number and reflects a receptor-mediated cell proliferation. The efficacy or intrinsic activity is calculated as a ratio of the maximal effect of the drug to the maximal effect of a standard full agonist for each receptor subtype. Brimonidine, also called UK14304, the chemical structure of which is shown below, is used as the standard agonist for the alpha2A, alpha2B and alpha2C receptors. The EC50 is the concentration at which the drug effect is half of its maximal effect.
EC50 values are nanomolar. ND stands for “not determinable” at concentrations less than 10 micromolar. IA stands for “intrinsic activity.”

alpha2C receptor = target: T2, alpha2C receptor (Homo sapiens, UniProt P18825); test: RSAT assay (Receptor Selection and Amplification Technology), alpha2C; conditions: maximal effect relative to standard full agonist brimonidine (UK14304); read-out: Alpha 2C intrinsic activity (IA), in parentheses
T2 construct: expressed in transfected cells; host or cells: NIH-3T3 cells
T2 sequence (P18825 1-462): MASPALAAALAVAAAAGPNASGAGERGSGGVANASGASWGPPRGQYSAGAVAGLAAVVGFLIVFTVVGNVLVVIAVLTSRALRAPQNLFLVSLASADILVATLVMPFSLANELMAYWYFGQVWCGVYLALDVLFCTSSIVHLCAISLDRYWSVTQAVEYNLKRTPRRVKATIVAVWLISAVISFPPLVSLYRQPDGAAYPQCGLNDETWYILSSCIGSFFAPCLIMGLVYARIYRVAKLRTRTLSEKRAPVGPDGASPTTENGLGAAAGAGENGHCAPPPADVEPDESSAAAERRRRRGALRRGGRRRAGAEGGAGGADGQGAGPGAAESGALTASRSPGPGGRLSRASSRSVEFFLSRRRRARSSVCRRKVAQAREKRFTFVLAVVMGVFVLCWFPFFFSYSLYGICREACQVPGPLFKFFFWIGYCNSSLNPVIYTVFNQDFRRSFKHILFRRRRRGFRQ
Description: as §1, §2
(§3) NIH-3T3 cells are plated at a density of 2×10^6 cells in 15 cm dishes and maintained in Dulbecco's modified Eagle's medium supplemented with 10% calf serum. […] After washing with phosphate-buffered saline, β-galactosidase enzyme activity is determined by adding 200 μl of the chromogenic substrate (consisting of 3.5 mM o-nitrophenyl-β-D-galactopyranoside and 0.5% nonidet P-40 in phosphate buffered saline), incubating overnight at 30° C. and measuring optical density at 420 nm. The absorbance is a measure of enzyme activity, which depends on cell number and reflects a receptor-mediated cell proliferation. […]

alpha2A receptor = target: T3, alpha2A receptor (Homo sapiens, UniProt P08913); test: RSAT assay (Receptor Selection and Amplification Technology), alpha2A; conditions: read-out: Alpha 2A intrinsic activity (IA), in parentheses
T3 construct: expressed in transfected cells; host or cells: NIH-3T3 cells
T3 sequence (P08913 1-465): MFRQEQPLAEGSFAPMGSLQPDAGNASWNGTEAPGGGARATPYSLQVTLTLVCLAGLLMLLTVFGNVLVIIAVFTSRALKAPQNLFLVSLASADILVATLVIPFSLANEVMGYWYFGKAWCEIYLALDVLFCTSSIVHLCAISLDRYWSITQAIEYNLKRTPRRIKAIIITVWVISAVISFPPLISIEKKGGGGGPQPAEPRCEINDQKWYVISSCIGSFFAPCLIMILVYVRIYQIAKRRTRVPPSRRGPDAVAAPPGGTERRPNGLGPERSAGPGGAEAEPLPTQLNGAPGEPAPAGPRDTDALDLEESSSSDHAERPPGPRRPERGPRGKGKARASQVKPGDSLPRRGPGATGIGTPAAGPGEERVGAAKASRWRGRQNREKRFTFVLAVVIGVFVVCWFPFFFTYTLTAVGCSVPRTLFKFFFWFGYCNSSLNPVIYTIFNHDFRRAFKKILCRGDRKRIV
Description: as §1, §2, §3

Row | Compound | EC50 (alpha2B receptor) [nM] | Emax (alpha2B receptor) [%] | Emax (alpha2C receptor) [%] | Emax (alpha2A receptor) [%]
1 | c1cnc2c(c1)CCCC2NC1=NCCO1 (centres unmarked) | 545 | 67 | 22 | 3
2 | c1cnc2c(n1)CCCC2NC1=NCCO1 (centres unmarked) | 271 | 86 | 27 | 16
